The results in this text go back to patent US20200368239A1, “TREATMENT OF AMYOTROPHIC LATERAL SCLEROSIS USING TRAMETINIB” (priority 2019, published 2020).

The test system of series [1] is SOD1-G93A ALS model mice. Nature of the series: Survival of SOD1-G93A ALS model mice. It counts as in vivo. The following applies: 0.1 or 0.2 mg/kg/day oral. The method, then:
Therapeutic efficacy of trametinib was examined in the SOD1-G93A transgenic mouse model, the most widely used animal model for ALS research. The SOD1-G93A ALS model mice, TgN [B6SJL-Tg (SOD1-G93A) 1Gur], were purchased from Jackson Laboratory (ME, USA) and bred at 21±2° C., 35-65% RH.
In addition, immunohistochemical analysis was performed with the spinal cords of the mice to evaluate the efficacy of trametinib on the tissue, cellular, and molecular level.
After the onset of symptoms (around 16 weeks after birth), trametinib was orally administered to two groups of ALS model mice every day at the doses of 0.1 mg/kg or 0.2 mg/kg (mpk). As controls, wild type (WT) mice and ALS model mice were treated with vehicle.
Mice with motor performance score at or lower than 3 were euthanized as they were not able to feed themselves. Survival days for each group of mice were counted.

For series [2], the system named is mRNA expression in whole brain. Nature of the series: Bulk RNA-Seq of whole brains of wild type mice after oral administration. It counts as in vivo. As to conditions: FC ≥1.3, FDR <0.05. The method, then: To evaluate the transcriptional profiles in the brain, bulk RNA-Seq was performed using whole brains of wild type mice following oral administration of trametinib. Gene ontology terms were enriched at each weekly time point, indicating the relevance of cellular function such as synaptic potential, nervous system development, immune response, and incorrect protein folding in a temporal pattern (FIG. 3A). Decrease in MEK-ERK signaling with trametinib administration during week 1 and week 2 of administration can be indirectly confirmed through the decrease in expression of FGF receptor signaling and GPCR signaling related genes.
In the second week, we observed neuroblast proliferation-related and axon growth-related gene expression, followed by expression of genes for immune reaction and incorrect protein modification reaction in the third and fourth week, respectively. It is important to note that increase in the gene-sets associated with neurogenesis and the induction of lysosomal activity both occurred within the four-week period, as illustrated by the gene expression heatmap (FIGS. 4A-4B). […] Their FCs were between −2.26 and 3.71.
RNA was isolated from the mice whole brain and cDNA libraries for RNA sequencing were prepared using the TruSeq Stranded mRNA Prep Kit (Illumina, San Diego, Calif.) according to the manufacturer's guidelines (l). The libraries were sequenced on the Illumina Nextseq500 platform and the reads were mapped to the reference Mouse mm10 genome using Tophat v2.0.13. The total number of reads mapped to the transcriptomes were 24,532 genes and the genes with 0 count in at least one sample were removed before differential expression analysis. There was a total of 18,727 genes after the removal of genes with 0 count. To define differentially expressed genes (DEG), we set up a stringent statistic cutoff of fold change (FC) of ≥1.3 and a false discovery rate (FDR)<0.05. A total of 500 DEGs was identified between the vehicle-treated group and trametinib-treated group in the first week, 498 DEGs in the second week, 446 genes in the third week and 538 genes in the fourth week. Gene ontology was performed with Gene Ontology program of the gene ontology consortium. Heatmap analysis was performed by R studio using the DEG list related with synapse, neurogenesis and lysosome.

Series [3] concerns patients with ALS. Nature of the series: Phase 1/2a clinical trial in patients with ALS. It counts as in vivo, human.
Excerpt: Patients are selected based on the following criteria for a sequential dose-escalation, randomized, active-controlled, phase ½a clinical trial to evaluate the safety, tolerability and efficacy of trametinib in patients with ALS.
Patients diagnosed as definite, probable or probable-laboratory-supported ALS according to El Escorial Criteria. Patients of less than 2 years after the onset of ALS. Patients who meet the criteria of K-ALSFRS-R score (total score of at least 30 and score of at least 2 for each item) and forced vital capacity (% FVC≥70%, or 60%≤% FVC<70% with K-ALSFRS-R score ≥3 for items 10 to 12).
Patients with primary lateral sclerosis, progressive muscular atrophy or lower motor neuron disease. […] Patients who have permanently ceased the administration of riluzole due to lack of tolerability and/or efficacy. […]
As primary outcome measures, safety and tolerability of trametinib is tested based on observation of adverse events. As secondary outcome measures, K-ALSFRS-R (Korean version of Amyotrophic Lateral Sclerosis Functional Rating Scale-Revised) scores are measured in the patients by independent outcome assessors. Additionally, change in forced vital capacity (FVC) from baseline, trough concentrations of trametinib in cerebrospinal fluid (CSF) and trough concentrations of trametinib in plasma are further measured.
The test system of series [4] is spinal cord neurons of SOD1-G93A ALS model mice. Put plainly: Histological and immunohistochemical analysis of spinal cord of SOD1-G93A ALS model mice. Format: in vivo. As to conditions: vs vehicle-treated ALS mice. The method, then: After the behavioral tests above were completed, the spinal cords of the euthanized mice were removed, fixed, and processed. The spinal cord tissue was sliced to a thickness of 10 μm with the CM1860 cryomicrotome (Leica Biosystems, Germany). Immunohistochemical analysis was performed using various staining methods to examine the spinal cord tissue, motor neurons, and protein expression in the motor neurons.
Through Nissl staining, the condition and distribution of neurons can be examined. Nissl staining solution contained 0.1% w/v Cresyl Violet (Sigma, C-5042, USA) and 0.1% v/v glacial acetic acid.
In order to examine the condition of the motor neurons, the spinal cord tissues were subjected to NeuN immunofluorescent staining to observe all types of neurons (red in FIG. 11) and SMI-32 staining (SMI-32 antibody binds specifically to motor neurons) to observe motor neurons (green in FIG. 11).
A longitudinal section of the spinal cord tissue was stained with tau antibody to examine the condition of the axonal nerve tract.
A cross-section of the spinal cord was stained with Tuj 1, an axonal marker, to examine the condition of axons in the tested mice.
MAP2 staining was performed to observe the condition of dendrites projecting out of the neurons.
(§1) Mice were perfused with ice-cold phosphate buffered saline (PBS) and followed by 4% paraformaldehyde (PFA). Spinal cords were dissected and analyzed by immunohistochemistry. For cryosections, spinal cords were prepared into sections of 10 μm slices. For immunostaining, the sections were incubated with anti-Map2 (Millipore, Burlington, Mass.), anti-Tuj 1 (Cell signaling, Danvers, Mass.), anti-SMI-32 (Biolegend, San Diego, Calif.), anti-LAMP1 (Abcam, Cambridge, UK), or anti-LC3 (Cell signaling) antibodies. This step was followed by incubation with Alexa Fluor 488-conjugated anti-mouse IgG (Thermo, Waltham, Mass.), Alexa Fluor 488-conjugated anti-rat IgG (Thermo), Alexa Fluor 555-conjugated anti-rabbit IgG secondary antibodies (Thermo). The sections were counterstained with DAPI. The immunofluorescent images were captured using a LSM700 Laser-Scanning confocal microscope (Carl Zeiss, Heildenheim, Germany). For Nissl staining, the sections were incubated with Nissl staining solution (0.1% w/v Cresyl Violet (Sigma, C-5042, USA) and 0.1% v/v glacial acetic acid). The length of the Map2 and Tuj 1 positive dendrites and axons were measured using Icy program. The LC3-LAMP1 co-localization was observed under a confocal microscopy using a LSM700 microscope (Carl Zeiss).

The subject of series [5] is LAMP1 / LC3 in spinal cord of SOD1-G93A ALS model mice. Put plainly: LC3 and LAMP1 immunofluorescence in spinal cord tissues (autophagosome-lysosome fusion). As to conditions: vs vehicle-treated ALS model mice. Format: in vivo. How it is done:
as §1

For series [6], the system named is MEK1/2. Nature of the series: Western blot of pERKs and ERKs in mice whole brain lysates after oral administration. It counts as in vivo. As to conditions: wild type mice. The method, then:
FIG. 2 provides a representative image of western blot analysis of pERKs and ERKs in mice whole brain lysates. ERKs were included as a loading control.
Cells and tissues were washed twice with ice-cold phosphate-buffered saline (PBS) and extracted by homogenizing with Ripa buffer (10 mM HEPES, 1.5 mM MgCl2, 10 mM KCl, 0.01 M DTT, protease inhibitors, pH 7.9). Lysates were centrifuged at 13,000 rpm for 20 min at 4° C. and the protein content in the supernatant was determined using Bradford assay (Bio-rad, Hercules, Calif.). Protein from each sample was subjected to 8%-15% SDS-PAGE, and the resolved proteins were transferred to nitrocellulose or polyvinylidene fluoride membrane. The membranes were blocked with 5% nonfat milk powder in Tris-buffered saline/Tween 20 (TBST) for 1 h at room temperature, then incubated with anti-phospho-ERK (Cell signaling), anti-ERK (Cell signaling), anti-LAMP1 (Abcam), anti-LC3 (Cell signaling), anti-cathepsin B (Cell signaling), anti-p62 (Cell signaling), anti-p62 (5114, Cell signaling), anti-phospho-mTOR (5536, Cell signaling), anti-mTOR (2983, Cell signaling), anti-phospho-ULK1 (14202, Cell signaling), anti-ULK1 (8054, Cell signaling), anti-TFEB (852501, Biolegend), and anti-GAPDH (Cell signaling) overnight at 4° C. […] The detected signals were quantified using a LAS-4000 system (Fuji Film, Tokyo, Japan).
Background: Immunoblotting shows a protein as a band on a membrane.

A short description of series [7]: in vivo. As to conditions: mouse, po, 0.8 mg/kg.
Description: Trametinib (Medchemexpress, Monmouth Junction, N.J.) was micronized and suspended in the vehicle containing 5% mannitol, 1.5% hydroxypropyl methylcellulose and 0.2% sodium lauryl sulfate. For pharmacokinetic analysis, 0.05, 0.2 and 0.8 mg/kg of trametinib were orally administered in to 7-week-old normal mice (n=5 per group) as a single administration. Mice were sacrificed at each identical time points.

With `CC(=O)Nc1cccc(-n2c(=O)n(C3CC3)c(=O)c3c(Nc4ccc(I)cc4F)n(C)c(=O)c(C)c32)c1` [Trametinib, acetamide, N-[3-[3-cyclopropyl-5-[(2-fluoro-4-iodophenyl)amino]-3,4,6,7-tetrahydro-6,8-dimethyl-2,4,7-trioxopyrido[4,3-d]pyrimidin-1(2H)-yl]phenyl]], the “survival compared to the vehicle-treated groups” value in series [1] is given as “prolonged”. In addition, in series [2] (first week), the “number of differentially expressed genes (DEGs) vs vehicle-treated group” value (“number of differentially expressed genes” for short) is on record as 500. For the same molecule, the “number of differentially expressed genes” value in series [2] (fourth week) was 538. In series [2] (second week), the “number of differentially expressed genes” value amounted to 498. Further, the “number of differentially expressed genes” value in series [2] (third week) came to 446. Moreover, the “symptoms associated with ALS in treated patients” value in series [3] (0.5, 1 or 2 mg trametinib) was “reduction of a behavioral, physiological and/or pathological symptom associated with ALS”. Also, in series [3] (some patients), the “level of one or more markers after treatment” value is on record as “change in the level of one or markers”. Also, in series [4], the “axon condition (Tuj 1 staining, cross-section)” value is reported as “relatively well protected long axons”; the “axonal tract condition (tau staining, longitudinal section)” value is “reduced number of abnormal axonal spheroids”; the “dendrite condition (MAP2 staining)” value is “quite well protected”; the “motor neuron shape (SMI-32 and NeuN staining)” value is “elongated neurite shape was relatively well preserved”. Besides, in series [4], the “number of neurons in spinal cord (Nissl staining)” value was “retained more neurons than the vehicle-treated group”. For the same molecule, in series [5], the “LAMP1 signal (lysosome marker)” value is “LAMP1 signal was restored”; the “fusion of lysosome and autophagosome (LC3-LAMP1 co-localization)” value is “restored as well”. Further, the “pERK expression in the brain” value in series [6] was “significant decrease in pERK expression”. In addition, the Kp in series [7] is 0.477.
